We go through two compounds from patent US7897330B2, “Methods for characterizing enzyme inhibitors” (AB Sciex, LLC, priority 2005, dated 2011).

Read-outs that look alike come from different tables or passages of the source.

One assay deals with P. falciparum LDH (Plasmodium falciparum, UniProt Q27743). Description: fluorescence-coupled LDH enzyme assay on microfluidics system, continuously variable concentration gradient, fit to Equation 4. The assay is classed as biochemical. An excerpt: A fluorescence-coupled enzyme assay was developed using a microfluidics system described herein for creating a continuously variable concentration gradient to monitor the reduction of NAD^+ by the enzyme LDH to give a fluorescent end product. This system was then adapted to measure potency and determine mechanism of inhibition by various inhibitors of LDH.
One of the products of the reaction in the assay, NADH, is coupled to Thermus thermophilus NADH oxidase to generate H2O2, which in turn is coupled to horseradish peroxidase which reacts with […] and amplex red (Molecular Probes, Inc., Eugene, Oreg., U.S.A.) to give the fluorescent product resorufin. […]
The novel data analysis techniques described herein for determining the mechanism of inhibition of an inhibitor (or mechanism of activation of an activator) are applied to the data produced from the microfluidics system. The titration of the enzyme with a continuous linear variation of inhibitor and substrate from zero to a pre-determined finite concentration yields a characteristic rate profile that is defined by the specific type of interaction of the inhibitor and enzyme with respect to the substrate. […]
The titration of LDH with a linear gradient of NAD^+ was performed on the microfluidics system described herein with the change in relative fluorescence intensity monitored under initial rate conditions. […]

Assay [1] addresses T1, rabbit muscle lactate dehydrogenase (LDH) (Oryctolagus cuniculus, UniProt P13491).
T1 construct: the enzyme rabbit muscle lactate dehydrogenase (LDH); from tissue; host or cells: rabbit muscle
Kind of assay: continuous variation method on microtiter plate, step concentration gradients. In kind it is biochemical. An excerpt:
Determination of the mechanism of inhibition by the inhibitor oxalate with respect to the substrate NAD^+ against the enzyme rabbit muscle lactate dehydrogenase (LDH) using a microtiter plate to generate individual step concentration gradients was attempted. FIG. 47 is a graph showing the results of the experiment. An attempt to determine the mechanism of inhibition by the inhibitor oxalate with respect to the substrate lactate against the enzyme rabbit muscle LDH using a microtiter plate to generate individual step concentration gradients was attempted. FIG. 48 is a graph showing the results of this experiment.

For a further assay, the system named is LDH. Particulars: cited from earlier work.

Chain of P. falciparum LDH (Q27743 whole entry): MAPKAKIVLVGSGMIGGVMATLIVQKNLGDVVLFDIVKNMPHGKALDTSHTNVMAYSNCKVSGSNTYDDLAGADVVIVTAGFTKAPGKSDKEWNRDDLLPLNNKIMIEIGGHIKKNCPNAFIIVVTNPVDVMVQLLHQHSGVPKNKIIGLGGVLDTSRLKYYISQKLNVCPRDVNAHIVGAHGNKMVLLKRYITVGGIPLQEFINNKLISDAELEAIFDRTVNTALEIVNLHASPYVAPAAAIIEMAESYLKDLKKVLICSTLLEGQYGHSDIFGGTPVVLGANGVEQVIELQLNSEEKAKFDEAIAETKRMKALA

What is called Km is the concentration of substrate that gives half-maximal velocity. Turning to `NC(=O)c1ccc[n+]([C@@H]2O[C@H](COP(=O)([O-])OP(=O)(O)OC[C@H]3O[C@@H](n4cnc5c(N)ncnc54)[C@H](O)[C@@H]3O)[C@@H](O)[C@H]2O)c1` [NAD^+], the Km at P. falciparum LDH (titration of LDH with linear gradient of NAD+, initial rate conditions, read-out: Km (Michaelis constant)) is 54 ± 2 µM.
As to `O=C(O)C(=O)O` [oxalate], the mechanism of inhibition result was “uncompetitive inhibitor” in assay [1] (with respect to NAD+, ambiguous); “competitive inhibitor” in assay [1] (with respect to lactate, not certain); “uncompetitive” in the assay on LDH (with respect to NAD+); “competitive inhibitor” in the assay on LDH (with respect to lactate); “uncompetitive inhibition” at P. falciparum LDH (with respect to substrate NAD+, continuous gradient).
